The target of one assay is T1, HIV-1 protease (Q7S) (Human immunodeficiency virus type 1 group M subtype B, UniProt P04585, Q495S).
T1 construct: made in house
In words: HIV-1 Protease RET Assay. The format is biochemical. In outline:
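Ki values came from a RET assay on refolded Q7S protease (2 nM active dimer) cleaving RE(EDANS)SQNYPIVQK(DABCYL)R at 5 μM, read at ex 340/em 490 nm. Reactions ran 12 min at 37 C in 0.1M sodium acetate pH 4.8, 1M NaCl, 5 mM DTT, 10% DMSO; curves were fit with the Morrison tight-binding equation.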

In another assay the test system is HIV-1. The assay can be described thus: Cytopathic Effect (CPE) Inhibition Assay (XTT dye reduction). The format is cell-based. In outline: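 CEM-SS or MT-2 cells infected with HIV-1 RF or NL4–3 (moi 0.025–0.819), 2×10^4 cells/well, incubated six days with half-log compound dilutions. Viability read by XTT formazan at 450 nm; EC50 is the concentration restoring 50% of uninfected-control formazan, CC50 from uninfected treated cells, therapeutic index CC50/EC50.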

Where [1] appears, read: Ave. Ki (nM), RET assay, Q7S enzyme, pH 4.8, 37 C.
Setting [2] is: Human immunodeficiency virus 1, 144 h, read-out: Ave CPE EC50 (mM).
Setting [3] is: Ki, table of drawn compounds, unit inferred.

Read-outs that look alike come from different tables or passages of the source.

The values below come from patent publication US7169932B2 (priority 2001, dated 2007).

The compound `Cc1c(O)cccc1C(=O)N[C@@H](Cc1ccccc1)[C@H](O)C(=O)N1CSC(C)(C)[C@H]1C(=O)NCc1ccc(OC(F)(F)F)cc1` [Example A47, (R)-3-((2S,3S)-2-Hydroxy-3-{[1-(3-hydroxy-2-methyl-phenyl)-methanoyl]-amino}-4-phenyl-butanoyl)-5,5-dimethyl-thiazolidine-4-carboxylic acid 4-trifluoromethoxy-benzylamide] showed a Ki at HIV-1 protease (Q7S) (setting [1]) of 2.3 nM. Further, the EC50 in the assay on HIV-1 (setting [2]) came to 1810 nM.
In turn, `C=CCN(C)C(=O)[C@H]1N(C(=O)[C@@H](O)[C@H](Cc2ccccc2)NC(=O)c2cccc(O)c2C)CSC1(C)C` [Example A23, (R)-3-((2S,3S)-2-Hydroxy-3-{[1-(3-hydroxy-2-methyl-phenyl)-methanoyl]-amino}-4-phenyl-butanoyl)-5,5-dimethyl-thiazolidine-4-carboxylic acid allyl-methyl-amide] displayed a Ki on HIV-1 protease (Q7S) (setting [1]) of 0.65 nM. The EC50 in the assay on HIV-1 (setting [2]) turned out to be 72 nM.
Compound `Cc1ccccc1CNC(=O)[C@H]1N(C(=O)[C@@H](O)[C@H](Cc2ccccc2)NC(=O)c2cccc(N)n2)CSC1(C)C` [Example B40, 6-Amino-pyridine-2-carboxylic acid {(1S,2S)-1-benzyl-3-[(R)-5,5-dimethyl-4-(2-methyl-benzylcarbamoyl)-thiazolidin-3-yl]-2-hydroxy-3-oxo-propyl}-amide] yielded a Ki at HIV-1 protease (Q7S) (setting [1]) of 2.8 nM. Moreover, in the assay with HIV-1 (setting [2]), the EC50 worked out at 1400 nM.
`Cc1ccccc1CNC(=O)C1N(C(=O)C(O)C(Cc2ccccc2)NC(=O)C2=NNC(=O)CC2)CSC1(C)C` (stereo not drawn) [Example B18, 6-Oxo-1,4,5,6-tetrahydro-pyridazine-3-carboxylic acid {1-benzyl-3-[5,5-dimethyl-4-(2-methyl-benzylcarbamoyl)-thiazolidin-3-yl]-2-hydroxy-3-oxo-propyl}-amide] showed an inhibition constant Ki on HIV-1 protease (Q7S) (setting [1]) of 0.29 nM. Further, the EC50 in the assay with HIV-1 (setting [2]) was 457 nM.
On HIV-1 protease (Q7S) (setting [3]), `Cc1ccccc1CNC(=O)[C@H]1N(C(=O)[C@@H](O)[C@H](Cc2ccccc2)NC(=O)c2c[nH]cn2)CSC1(C)C` yielded a Ki of 55.8 nM. Besides, in the assay on HIV-1 (Human immunodeficiency virus 1), the EC50 was at least 10000 nM.
`Cc1ccc(CNC(=O)[C@H]2N(C(=O)[C@@H](O)[C@H](Cc3ccccc3)NC(=O)c3cccc(O)c3C)CSC2(C)C)cc1`: the Ki at HIV-1 protease (Q7S) (setting [3]) worked out at 0.73 nM. The compound also registered an EC50 in the assay with HIV-1 (Human immunodeficiency virus 1) of 141 nM.
At HIV-1 protease (Q7S) (setting [3]), `CCC/C=C/CNC(=O)[C@H]1N(C(=O)[C@@H](O)[C@H](Cc2ccccc2)NC(=O)c2cccc(O)c2C)CSC1(C)C` registered a Ki of 2.6 nM. In the assay on HIV-1 (Human immunodeficiency virus 1), this compound returned an EC50 of 1420 nM.
In the case of `Cc1ccccc1CNC(=O)[C@H]1N(C(=O)[C@@H](O)[C@H](Cc2ccccc2)NC(=O)c2ccc(F)cc2C)CSC1(C)C` [Example B37, (R)-3-((2S,3S)-3-{[1-(4-Fluoro-2-methyl-phenyl)-methanoyl]-amino}-2-hydroxy-4-phenyl-butanoyl)-5,5-dimethyl-thiazolidine-4-carboxylic acid 2-methyl-benzylamide], on HIV-1 protease (Q7S) (setting [1]), the affinity, expressed as Ki, was 0.11 nM. Also, the EC50 with HIV-1 (setting [2]) stood at 736 nM.
For `C#CCNC(=O)[C@H]1N(C(=O)[C@@H](O)[C@H](Cc2ccccc2)NC(=O)c2ccc(C)c(O)c2C)CSC1(C)C` [Example B21, 3-(2-Hydroxy-3-{[1-(3-hydroxy-2,4-dimethyl-phenyl)-methyanoyl]-amino}-4-phenyl-butznoyl)-5,5-dimethyl-thiazolidine-4-carboxylic acid prop-2-ynylamide], in that order: 4.6 nM and 598 nM.
As to `Cc1c(O)cccc1C(=O)N[C@@H](Cc1ccccc1)[C@H](O)C(=O)N1CSC(C)(C)[C@H]1C(=O)NCCc1ccccc1` [Example A19, (R)-3-((2S,3S)-2-Hydroxy-3-{[1-(3-hydroxy-2-methyl-phenyl)-methanoyl]-amino}-4-phenyl-butanoyl)-5,5-dimethyl-thiazolidine-4-carboxylic acid phenethyl-amide], the Ki at HIV-1 protease (Q7S) (setting [1]) was found to be 10 nM. The EC50 in the assay on HIV-1 (setting [2]) is 442 nM.
For the compound `Cc1ccccc1CNC(=O)[C@H]1N(C(=O)[C@@H](O)[C@H](Cc2ccccc2)NC(=O)c2ccccc2Cl)CSC1(C)C`, on HIV-1 protease (Q7S) (setting [3]), affinity was put at a Ki of 0.2 nM. In the assay on HIV-1 (Human immunodeficiency virus 1), this compound displayed an EC50 of 585 nM.
For `CC(=O)Nc1cccc(CNC(=O)[C@H]2N(C(=O)[C@@H](O)[C@H](Cc3ccccc3)NC(=O)c3cccc(O)c3C)CSC2(C)C)c1` [Example A33, (R)-3-((2S,3S)-2-Hydroxy-3-{[1-(3-hydroxy-2-methyl-phenyl)-methanoyl]-amino}-4-phenyl-butanoyl)-5,5-dimethyl-thiazolidine-4-carboxylic acid 3-acetylamino-benzylamide], at HIV-1 protease (Q7S) (setting [1]), the Ki was under 0.1 nM. Besides, the EC50 with HIV-1 (setting [2]) was 577 nM.
In the case of `Cc1cccc(CNC(=O)[C@H]2N(C(=O)[C@@H](O)[C@H](Cc3ccccc3)NC(=O)c3cccc(O)c3C)CSC2(C)C)c1`, the inhibitory constant (Ki) at HIV-1 protease (Q7S) (setting [3]) came out at 1.5 nM. Besides, in the assay on HIV-1 (Human immunodeficiency virus 1), the EC50 was 76 nM.
Compound `Cc1c(O)cccc1C(=O)N[C@@H](Cc1ccccc1)[C@H](O)C(=O)N1CSC(C)(C)[C@H]1C(=O)NCc1ccc(C(F)(F)F)cc1` [Example A9, (R)-3-((2S,3S)-2-Hydroxy-3-{[1-(3-hydroxy-2-methyl-phenyl)-methanoyl]-amino}-4-phenyl-butanoyl)-5,5-dimethyl-thiazolidine-4-carboxylic acid 4-trifluoromethyl-benzylamide] returned a Ki at HIV-1 protease (Q7S) (setting [1]) of 4 nM. Besides, the EC50 with HIV-1 (setting [2]) is 565 nM.
On to `Cc1ccccc1CNC(=O)[C@H]1N(C(=O)[C@@H](O)[C@H](Cc2ccccc2)NC(=O)c2cc(C(C)(C)C)on2)CSC1(C)C`, for which the Ki at HIV-1 protease (Q7S) (setting [3]) worked out at 214 nM. Also, the EC50 in the assay with HIV-1 (Human immunodeficiency virus 1) is at least 10000 nM.
At HIV-1 protease (Q7S) (setting [3]), `Cc1ccc(C(=O)N[C@@H](Cc2ccccc2)[C@H](O)C(=O)N2CSC(C)(C)[C@H]2C(=O)CCC(F)(F)F)c(C)c1O` displayed a Ki of 9.6 nM. Further, the EC50 in the assay with HIV-1 (Human immunodeficiency virus 1) worked out at 723 nM.
Compound `Cc1c(O)cccc1C(=O)N[C@@H](Cc1ccccc1)[C@H](O)C(=O)N1CSC(C)(C)[C@H]1C(=O)NCCC(C)(C)C` showed a Ki at HIV-1 protease (Q7S) (setting [3]) of 4.7 nM. In the assay with HIV-1 (Human immunodeficiency virus 1), this compound displayed an EC50 of 1060 nM.
In turn, `Cc1c(O)cccc1C(=O)N[C@@H](Cc1ccccc1)[C@H](O)C(=O)N1CSC(C)(C)[C@H]1C(=O)NCc1ccc(N(C)C)cc1` [Example A15, (R)-3-((2S,3S)-2-Hydroxy-3-{[1-(3-hydroxy-2-methyl-phenyl)-methanoyl]-amino}-4-phenyl-butanoyl)-5,5-dimethyl-thiazolidine-4-carboxylic acid 4-dimethylamino-benzylamide] showed a Ki on HIV-1 protease (Q7S) (setting [1]) of 10.9 nM. For the same compound, the EC50 in the assay on HIV-1 (setting [2]) stood at 130 nM.
In turn, `C=CCNC(=O)[C@H]1N(C(=O)[C@@H](O)[C@H](Cc2ccccc2)NC(=O)[C@@H]2CCCO2)CSC1(C)C` showed a Ki at HIV-1 protease (Q7S) (setting [3]) of 17.3 nM. The same compound registered an EC50 with HIV-1 (Human immunodeficiency virus 1) of 3300 nM.
Turning to `Cc1c(O)cccc1C(=O)N[C@@H](Cc1ccccc1)[C@H](O)C(=O)N1CSC(C)(C)[C@H]1C(=O)NCCCl` [Example A49, (R)-3-[(2S,3S)-2-Hydroxy-3-(3-hydroxy-2-methyl-benzoylamino)-4-phenyl-butyryl]-5,5-dimethyl-thiazolidine-4-carboxylic acid (2-chloro-ethyl)-amide], the Ki at HIV-1 protease (Q7S) (setting [1]) is 1.2 nM. Moreover, the EC50 with HIV-1 (setting [2]) came out at 130 nM.
The compound `Cc1ccccc1CNC(=O)[C@@H]1[C@H](C)OCN1C(=O)[C@@H](O)[C@H](Cc1ccccc1)NC(=O)c1cccc(O)c1C` [Example C8, (4S,5S)-3-((2S,3S)-2-Hydroxy-3-{[1-(3-hydroxy-2-methyl-phenyl)-methanoyl]-amino}-4-phenyl-butanoyl)-5-methyl-oxazolidine-4-carboxylic acid 2-methyl-benzylamide] gave an inhibition constant (Ki) at HIV-1 protease (Q7S) (setting [1]) of 0.26 nM. Further, the EC50 in the assay on HIV-1 (setting [2]) is 447 nM.
Compound `Cn1cccc1C(=O)N[C@@H](Cc1ccccc1)[C@H](O)C(=O)N1CSC(C)(C)[C@H]1C(=O)NCc1ccccc1Cl` [Example B22, 3-{2-Hydroxy-3-[(1-methyl-1H-pyrrole-2-carbonyl)-amino]-4-phenyl-butyryl}-5,5-dimethyl-thiazolidine-4-carboxylic acid 2-chloro-benzylamide] returned a Ki on HIV-1 protease (Q7S) (setting [1]) of 1.8 nM. For the same compound, in the assay on HIV-1 (setting [2]), the EC50 is 1610 nM.
For `Cc1noc(C)c1C(=O)N[C@@H](Cc1ccccc1)[C@H](O)C(=O)N1CSC(C)(C)[C@H]1C(=O)NCc1ccccc1Cl` [Example B23, 3,5-Dimethyl-isoxazole-4-carboxylic acid {1-benzyl-3-[4-(2-chloro-benzylcarbamoyl)-5,5-dimethyl-thiazolidin-3-yl]-2-hydroxy-3-oxo-propyl}-amide], in that order: 0.42 nM and 1420 nM.
For the compound `Cc1cc(C(=O)N[C@@H](Cc2ccccc2)[C@H](O)C(=O)N2CSC(C)(C)[C@H]2C(=O)NCc2ccc(Cl)cc2C)no1`, affinity at HIV-1 protease (Q7S) (setting [3]) was put at a Ki of 28 nM. This compound displayed an EC50 in the assay on HIV-1 (Human immunodeficiency virus 1) of 4130 nM.
On HIV-1 protease (Q7S) (setting [1]), `Cc1c(O)cccc1C(=O)N[C@@H](Cc1ccccc1)[C@H](O)C(=O)N1CSC(C)(C)[C@H]1C(=O)NCc1ccc(C(F)(F)F)c(F)c1` [Example A11] showed an inhibition constant Ki of 19 nM. The EC50 with HIV-1 (setting [2]) is 930 nM.
On to `Cc1ccccc1CNC(=O)C1N(C(=O)[C@@H](O)[C@H](Cc2ccccc2)NC(=O)c2cccnc2C)CSC1(C)C` (stereo partly drawn) [Example B44, N-{(1S,2S)-1-Benzyl-3-[5,5-dimethyl-4-(2-methyl-benzylcarbamoyl)-thiazolidin-3-yl]-2-hydroxy-3-oxo-propyl}-2-methyl-nicotinamide], for which the affinity on HIV-1 protease (Q7S) (setting [1]), expressed as Ki, was 0.76 nM. For the same compound, the EC50 in the assay on HIV-1 (setting [2]) was determined as 629 nM.
In the case of `CCCNC(=O)[C@H]1N(C(=O)[C@@H](O)[C@H](Cc2ccccc2)NC(=O)c2ccccc2C)CSC1(C)C` [Example B30, (R)-3-{(2S,3S)-2-Hydroxy-4-phenyl-3-[(1-o-tolyl-methanoyl)-amino]-butanoyl}-5,5-dimethyl-thiazolidine-4-carboxylic acid propylamide], at HIV-1 protease (Q7S) (setting [1]), the Ki was determined as 1.1 nM. Moreover, in the assay with HIV-1 (setting [2]), the EC50 is 1230 nM.
